# Experimental data as given in patent publication US10981891B2, “Antibacterial compounds and uses thereof” (priority 2016, dated 2021).
# System: M. tuberculosis H37Rv (ATCC 27294)
# Test: Microplate Alamar Blue assay (MABA), MIC against replicating M. tuberculosis H37Rv
# Assay type: cell-based
# Details: Mycobacterium tuberculosis, 168 h, read-out: M. tuberculosis MIC
row,SMILES,MIC [µg/mL]
1,"COc1nc2ccc(Br)cc2cc1C(c1ccnc(OC)c1OC)C(O)(CCN(C)C)c1cc2ccccc2o1 (stereo not shown) [Example 7, 2-(Benzofuran-2-yl)-1-(6-bromo-2-methoxyquinolin-3-yl)-1-(2,3-dimethoxypyridin-4-yl)-4-(dimethylamino)butan-2-ol]",0.03
2,"COc1nc2ccc(Br)cc2cc1C(c1ccccc1)C(O)(CCN(C)C)c1cccc2ccsc12 (stereo not shown) [Example 15, 2-(Benzo[b]thiophen-7-yl)-1-(6-bromo-2-methoxyquinolin-3-yl)-4-(dimethylamino)-1-phenylbutan-2-ol]",0.02

# Same assay, conditions: Mycobacterium tuberculosis, 168 h; H37Rv, MABA, 7H12 media, 7 days at 37° C.; MIC = lowest concentration reducing fluorescence by 90% relative to controls; read-out: M. tuberculosis MIC
row,SMILES,MIC [µg/mL]
1,"COc1cc(C(O)(CCN(C)C)C(c2cc3cc(Br)ccc3nc2OC)c2ccnc(OC)c2OC)cc(OC2CCC2)n1 (stereo not shown) [Example 30, 1-(6-Bromo-2-methoxyquinolin-3-yl)-2-(2-cyclobutoxy-6-methoxypyridin-4-yl)-1-(2,3-dimethoxypyridin-4-yl)-4-(dimethylamino)butan-2-ol]",< 0.004
2,"CCOc1cc(C(c2cc3cc(Br)ccc3nc2OC)C(O)(CCN(C)C)c2cccc3ccoc23)cc(OCC)n1 (stereo not shown) [Example 12, 2-(Benzofuran-7-yl)-1-(6-bromo-2-methoxyquinolin-3-yl)-1-(2,6-diethoxypyridin-4-yl)-4-(dimethylamino)butan-2-ol]",< 0.01
3,"COc1cc(C(O)(CCN(C)C)C(c2cc3cc(Br)ccc3nc2OC)c2cccc(OC)c2F)cc(OC(F)F)n1 (stereo not shown) [Example 49, 1-(6-Bromo-2-methoxyquinolin-3-yl)-2-(2-(difluoromethoxy)-6-methoxypyridin-4-yl)-4-(dimethylamino)-1-(2-fluoro-3-methoxyphenyl)butan-2-ol]",0.04
4,"COc1cc(C(O)(CCN(C)C)C(c2cccc(C)c2)c2cc3cc(Br)ccc3nc2OC)cc(OC(C)C)n1 (stereo not shown) [Example 25, 1-(6-Bromo-2-methoxyquinolin-3-yl)-4-(dimethylamino)-2-(2-isopropoxy-6-methoxypyridin-4-yl)-1-(m-tolyl)butan-2-ol]",0.01
5,"COc1cc(C(O)(CCN(C)C)C(c2cc3cc(C#N)ccc3nc2OC)c2cccc(C)c2F)cc(OC)n1 (stereo not shown) [Example 86, 3-(2-(2,6-Dimethoxypyridin-4-yl)-4-(dimethylamino)-1-(2-fluoro-3-methylphenyl)-2-hydroxybutyl)-2-methoxyquinoline-6-carbonitrile]",< 0.02
6,"CNCCC(O)(c1cc(OC)nc(OC)c1)C(c1ccc(C)s1)c1cc2cc(C#N)ccc2nc1OC (stereo not shown) [Example 78, 3-(2-(2,6-Dimethoxypyridin-4-yl)-2-hydroxy-4-(methylamino)-1-(5-methylthiophen-2-yl)butyl)-2-methoxyquinoline-6-carbonitrile]",0.09
7,"COc1nc2ccc(Br)cc2cc1C(c1cccc2c1OCCO2)C(O)(CCN(C)C)c1cc(SC)nc(SC)c1 (stereo not shown) [Example 56, 2-(2,6-Bis(methylthio)pyridin-4-yl)-1-(6-bromo-2-methoxyquinolin-3-yl)-1-(2,3-dihydrobenzo[b][1,4]dioxin-5-yl)-4-(dimethylamino)butan-2-ol]",0.01
8,"COc1cc(C(O)(CCN(C)C)C(c2ccc(C)s2)c2cc3cc(Br)ccc3nc2OC)cc(OC)n1 (stereo not shown) [Example 11, 1-(6-Bromo-2-methoxyquinolin-3-yl)-2-(2,6-dimethoxypyridin-4-yl)-4-(dimethylamino)-1-(5-methylthiophen-2-yl)butan-2-ol]",< 0.02
9,"COc1cc(C(O)(CCN(C)C)C(c2cccc(F)c2)c2cc3cc(C#N)ccc3nc2OC)cc(OC)n1 (stereo not shown) [Example 80, 3-(2-(2,6-Dimethoxypyridin-4-yl)-4-(dimethylamino)-1-(3-fluorophenyl)-2-hydroxybutyl)-2-methoxyquinoline-6-carbonitrile]",0.03
10,"COc1nc2ccc(Br)cc2cc1C(c1ccnc(OC)c1OC)C(O)(CCN(C)C)c1cc(SC)nc(SC)c1 (stereo not shown) [Example 46, 2-(2,6-Bis(methylthio)pyridin-4-yl)-1-(6-bromo-2-methoxyquinolin-3-yl)-1-(2,3-dimethoxypyridin-4-yl)-4-(dimethylamino)butan-2-ol]",< 0.02
11,"COc1cc(C(c2cc3cc(Br)ccc3nc2OC)C(O)(CCN(C)C)c2cccc(F)c2)cnc1OC (stereo not shown) [Example 3, 1-(6-Bromo-2-methoxyquinolin-3-yl)-1-(5,6-dimethoxypyridin-3-yl)-4-(dimethylamino)-2-(3-fluorophenyl)butan-2-ol]",0.47
12,"COc1cc(C(O)(CCN(C)C)C(c2cc3cc(Br)ccc3nc2OC)c2ccnc(OC)c2OC)c(OC)c(OC)n1 (stereo not shown) [Example 61, 1-(6-Bromo-2-methoxyquinolin-3-yl)-1-(2,3-dimethoxypyridin-4-yl)-4-(dimethylamino)-2-(2,3,6-trimethoxypyridin-4-yl)butan-2-ol]",0.02
13,"COc1cc(C(O)(CCN(C)C)C(c2cc3cc(C#N)ccc3nc2OC)c2cccc(OC)c2F)cc(OC(F)F)n1 (stereo not shown) [Example 82, 3-(2-(2-(Difluoromethoxy)-6-methoxypyridin-4-yl)-4-(dimethylamino)-1-(2-fluoro-3-methoxyphenyl)-2-hydroxybutyl)-2-methoxyquinoline-6-carbonitrile]",< 0.02
14,"COc1cccc(C(c2cc3cc(Br)ccc3nc2OC)C(O)(CCN(C)C)c2cc(SC)nc(SC)c2)c1F (stereo not shown) [Example 45, 2-(2,6-Bis(methylthio)pyridin-4-yl)-1-(6-bromo-2-methoxyquinolin-3-yl)-4-(dimethylamino)-1-(2-fluoro-3-methoxyphenyl)butan-2-ol]",< 0.02
15,"COc1nc2ccc(C#N)cc2cc1C(c1cccc(C)c1F)C(O)(CCN(C)C)c1cc(SC)nc(SC)c1 (stereo not shown) [Example 89, 3-(2-(2,6-Bis(methylthio)pyridin-4-yl)-4-(dimethylamino)-1-(2-fluoro-3-methylphenyl)-2-hydroxybutyl)-2-methoxyquinoline-6-carbonitrile]",0.02
16,"COc1nc2ccc(Br)cc2cc1C(c1ccnc(OC)c1OC)C(O)(CCN(C)C)c1ccc2occc2c1 (stereo not shown) [Example 10, 2-(Benzofuran-5-yl)-1-(6-bromo-2-methoxyquinolin-3-yl)-1-(2,3-dimethoxypyridin-4-yl)-4-(dimethylamino)butan-2-ol]",0.03
17,"COc1cc(C(O)(CCN(C)C)C(c2cc3cc(C#N)ccc3nc2OC)c2cccc3c2OCCO3)cc(OC(F)F)n1 (stereo not shown) [Example 91, 3-(2-(2-(Difluoromethoxy)-6-methoxypyridin-4-yl)-1-(2,3-dihydrobenzo[b][1,4]dioxin-5-yl)-4-(dimethylamino)-2-hydroxybutyl)-2-methoxyquinoline-6-carbonitrile]",0.02
18,"COc1cc(C(O)(CCN(C)C)C(c2cc3cc(Br)ccc3nc2OC)c2cccc(C)c2F)cc(OC(F)F)n1 (stereo not shown) [Example 54, 1-(6-Bromo-2-methoxyquinolin-3-yl)-2-(2-(difluoromethoxy)-6-methoxypyridin-4-yl)-4-(dimethylamino)-1-(2-fluoro-3-methylphenyl)butan-2-ol]",0.01
19,"COc1nc2ccc(C#N)cc2cc1C(c1cccc2c1OCCO2)C(O)(CCN(C)C)c1cc(SC)nc(SC)c1 (stereo not shown) [Example 90, 3-(2-(2,6-Bis(methylthio)pyridin-4-yl)-1-(2,3-dihydrobenzo[b][1,4]dioxin-5-yl)-4-(dimethylamino)-2-hydroxybutyl)-2-methoxyquinoline-6-carbonitrile]",0.01
20,"COc1nc2ccc(C#N)cc2cc1C(c1cccc(F)c1)C(O)(CCN(C)C)c1cccc2ccoc12 (stereo not shown) [Example 74, 3-(2-(Benzofuran-7-yl)-4-(dimethylamino)-1-(3-fluorophenyl)-2-hydroxybutyl)-2-methoxyquinoline-6-carbonitrile]",0.04
